In patent US9242987B2, “Heterocyclyl pyrazolopyrimidine analogues as JAK inhibitors” (Cellzome Limited, priority 2009, dated 2016):

Key:
JAK2 = target: T1, JAK2 (Homo sapiens, UniProt O60674); assay: Kinobeads assay, JAK2; type: binding; details: mixed Molt4/Ramos cell lysate, dot blot detection
T1 construct: endogenous in cells; host or cells: Mixed Molt4/Ramos lysate (1:2)
Method: (§1) The compounds of the present invention as described in the previous examples were tested in a Kinobeads™ assay as described for ZAP-70 (WO-A 2007/137867). Briefly, test compounds (at various concentrations) and the affinity matrix with the immobilized aminopyrido-pyrimidine ligand 24 were added to cell lysate aliquots and allowed to bind to the proteins in the lysate sample. After the incubation time the beads with captured proteins were separated from the lysate. Bound proteins were then eluted and the presence of JAK2 and JAK3 was detected and quantified using specific antibodies in a dot blot procedure and the Odyssey infrared detection system. Dose response curves for individual kinases were generated and IC50 values calculated. Kinobeads™ assays for ZAP-70 (WO-A 2007/137867) and for kinase selectivity profiling (WO-A 2006/134056) have been previously described.
(§2) The affinity matrix was washed two times with 15 mL of 1×DP buffer containing 0.2% NP40 (IGEPAL® CA-630, Sigma, #13021) and then resuspended in 1×DP buffer containing 0.2% NP40 (3% beads slurry).
(§3) 5×DP buffer: 250 mM Tris-HCl pH 7.4, 25% Glycerol, 7.5 mM MgCl2, 750 mM NaCl, 5 mM Na3VO4; filter the 5×DP buffer through a 0.22 μm filter and store in aliquots at −80° C. The 5×DP buffer is diluted with H2O to 1×DP buffer containing 1 mM DTT and 25 mM NaF.
(§4) Stock solutions of test compounds were prepared in DMSO. In a 96 well plate 30 μL solution of diluted test compounds at 5 mM in DMSO were prepared. Starting with this solution a 1:3 dilution series (9 steps) was prepared. For control experiments (no test compound) a buffer containing 2% DMSO was used.
(§5) Molt4 cells (ATCC catalogue number CRL-1582) and Ramos cells (ATCC catalogue number CRL-1596) were grown in 1 L Spinner flasks (Integra Biosciences, #182101) in suspension in RPMI 1640 medium (Invitrogen, #21875-034) supplemented with 10% Fetal Bovine Serum (Invitrogen) at a density between 0.15×10^6 and 1.2×10^6 cells/mL. Cells were harvested by centrifugation, washed once with 1×PBS buffer (Invitrogen, #14190-094) and cell pellets were frozen in liquid nitrogen and subsequently stored at −80° C. Cells were homogenized in a Potter S homogenizer in lysis buffer: 50 mM Tris-HCl, 0.8% NP40, 5% glycerol, 150 mM NaCl, 1.5 mM MgCl2, 25 mM NaF, 1 mM sodium vanadate, 1 mM DTT, pH 7.5. One complete EDTA-free tablet (protease inhibitor cocktail, Roche Diagnostics, 1873580) per 25 mL buffer was added. The material was dounced 10 times using a mechanized POTTER S, transferred to 50 mL falcon tubes, incubated for 30 minutes on ice and spun down for 10 minutes at 20,000 g at 4° C. (10,000 rpm in Sorvall SLA600, precooled). The supernatant was transferred to an ultracentrifuge (UZ)-polycarbonate tube (Beckmann, 355654) and spun for 1 hour at 100.000 g at 4° C. (33.500 rpm in Ti50.2, precooled). The supernatant was transferred again to a fresh 50 mL falcon tube, the protein concentration was determined by a Bradford assay (BioRad) and samples containing 50 mg of protein per aliquot were prepared. The samples were immediately used for experiments or frozen in liquid nitrogen and stored frozen at −80° C.
(§6) Cell lysate (approximately 50 mg protein per plate) was thawed in a water bath at room temperature and then stored on ice. To the thawed cell lysate 1×DP 0.8% NP40 buffer containing protease inhibitors (1 tablet for 25 mL buffer; EDTA-free protease inhibitor cocktail; Roche Diagnostics 1873580) was added in order to reach a final protein concentration of 10 mg/mL total protein. The diluted cell lysate was stored on ice. Mixed Molt4/Ramos lysate was prepared by combining one volume of Molt4 lysate and two volumes of Ramos lysate (ratio 1:2).
(§7) To a 96 well filter plate (Multiscreen HTS, BV Filter Plates, Millipore #MSBVN1250) were added per well: 100 μL affinity matrix (3% beads slurry), […], of compound solution, and 50 μL of diluted lysate. […]

JAK3 = target: T2, JAK3 (Homo sapiens, UniProt P52333); assay: Kinobeads assay, JAK3; type: binding; details: mixed Molt4/Ramos cell lysate, dot blot detection
T2 construct: endogenous in cells; host or cells: Mixed Molt4/Ramos lysate (1:2)
T2 sequence (P52333 1-1124): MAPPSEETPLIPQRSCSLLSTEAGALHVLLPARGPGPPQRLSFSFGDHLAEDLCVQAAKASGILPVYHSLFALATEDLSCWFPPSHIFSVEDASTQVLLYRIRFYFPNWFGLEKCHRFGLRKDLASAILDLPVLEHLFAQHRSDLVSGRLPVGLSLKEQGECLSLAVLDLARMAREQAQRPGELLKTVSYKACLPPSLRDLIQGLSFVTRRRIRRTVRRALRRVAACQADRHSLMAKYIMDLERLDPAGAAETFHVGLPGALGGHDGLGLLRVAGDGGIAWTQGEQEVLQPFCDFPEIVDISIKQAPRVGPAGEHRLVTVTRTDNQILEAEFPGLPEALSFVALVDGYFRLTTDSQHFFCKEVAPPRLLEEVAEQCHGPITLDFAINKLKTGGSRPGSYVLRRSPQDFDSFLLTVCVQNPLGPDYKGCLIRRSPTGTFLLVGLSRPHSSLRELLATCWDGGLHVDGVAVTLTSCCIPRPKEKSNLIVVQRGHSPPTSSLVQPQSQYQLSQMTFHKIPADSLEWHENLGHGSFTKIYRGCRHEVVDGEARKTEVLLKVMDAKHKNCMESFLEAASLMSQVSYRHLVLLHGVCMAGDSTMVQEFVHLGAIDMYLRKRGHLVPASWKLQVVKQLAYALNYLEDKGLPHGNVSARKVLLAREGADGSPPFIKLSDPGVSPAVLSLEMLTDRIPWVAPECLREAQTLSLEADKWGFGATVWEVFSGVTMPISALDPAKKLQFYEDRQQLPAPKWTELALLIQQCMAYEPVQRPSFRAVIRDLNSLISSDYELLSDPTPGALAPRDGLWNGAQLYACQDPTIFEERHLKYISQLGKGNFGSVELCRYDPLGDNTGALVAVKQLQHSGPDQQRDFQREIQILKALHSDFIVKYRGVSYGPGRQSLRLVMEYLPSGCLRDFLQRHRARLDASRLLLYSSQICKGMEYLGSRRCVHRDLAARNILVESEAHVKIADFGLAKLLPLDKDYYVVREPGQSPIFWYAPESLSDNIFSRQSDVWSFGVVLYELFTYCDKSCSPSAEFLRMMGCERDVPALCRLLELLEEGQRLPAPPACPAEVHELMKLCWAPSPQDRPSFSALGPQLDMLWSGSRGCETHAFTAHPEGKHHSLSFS
Method: as §1, §2, §3, §4, §5, §6, §7

T1 sequence (O60674 whole entry): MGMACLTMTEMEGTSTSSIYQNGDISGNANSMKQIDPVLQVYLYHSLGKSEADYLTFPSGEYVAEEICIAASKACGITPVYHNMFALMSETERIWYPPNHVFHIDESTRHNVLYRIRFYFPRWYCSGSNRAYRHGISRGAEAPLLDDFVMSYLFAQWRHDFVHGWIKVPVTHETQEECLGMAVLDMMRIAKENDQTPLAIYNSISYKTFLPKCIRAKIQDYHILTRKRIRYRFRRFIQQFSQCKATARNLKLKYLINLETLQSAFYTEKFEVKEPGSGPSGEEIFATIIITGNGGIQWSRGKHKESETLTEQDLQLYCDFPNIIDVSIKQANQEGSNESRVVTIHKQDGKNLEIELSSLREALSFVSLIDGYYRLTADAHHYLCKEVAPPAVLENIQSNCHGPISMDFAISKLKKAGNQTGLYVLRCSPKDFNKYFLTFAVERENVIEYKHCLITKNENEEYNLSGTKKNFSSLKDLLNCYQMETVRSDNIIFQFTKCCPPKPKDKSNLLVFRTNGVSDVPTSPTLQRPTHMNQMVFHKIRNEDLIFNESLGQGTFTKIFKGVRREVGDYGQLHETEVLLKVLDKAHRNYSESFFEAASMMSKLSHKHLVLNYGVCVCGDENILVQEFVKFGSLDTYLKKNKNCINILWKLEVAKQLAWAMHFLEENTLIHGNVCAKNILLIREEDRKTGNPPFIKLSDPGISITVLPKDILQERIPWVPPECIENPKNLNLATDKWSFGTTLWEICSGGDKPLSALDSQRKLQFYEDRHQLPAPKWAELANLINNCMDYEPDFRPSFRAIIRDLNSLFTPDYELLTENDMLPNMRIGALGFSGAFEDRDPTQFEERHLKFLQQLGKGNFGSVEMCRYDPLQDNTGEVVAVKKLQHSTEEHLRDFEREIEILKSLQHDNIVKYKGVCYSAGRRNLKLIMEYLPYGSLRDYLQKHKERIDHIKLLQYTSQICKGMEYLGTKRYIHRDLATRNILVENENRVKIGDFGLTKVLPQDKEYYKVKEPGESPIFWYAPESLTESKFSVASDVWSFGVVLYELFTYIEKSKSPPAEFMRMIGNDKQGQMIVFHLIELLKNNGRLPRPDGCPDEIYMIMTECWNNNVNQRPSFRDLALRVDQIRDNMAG

Row | Compound | IC50 (JAK2) [µM] | IC50 (JAK3) [µM]
1 | Cn1cc(Nc2ncc3cnn(Cc4ccccc4F)c3n2)cc1C(=O)NCCN1CCOCC1 [Example 243, 4-((1-(2-Fluorobenzyl)-1H-pyrazolo[3,4-d]pyrimidin-6-yl)amino)-1-methyl-N-(2-morpholinoethyl)-1H-pyrrole-2-carboxamide] | < 0.1 | < 0.1
2 | Cn1cc(Nc2ncc3cnn(Cc4cccc(NS(C)(=O)=O)c4)c3n2)cn1 [Example 140, N-(3-((6-((1-Methyl-1H-pyrazol-4-yl)amino)-1H-pyrazolo[3,4-d]pyrimidin-1-yl)methyl)phenyl)methanesulfonamide] | 1 to 10 | < 0.1
3 | COCCn1cc(Nc2ncc3cnn(Cc4ccccc4C#N)c3n2)c(C)n1 [Example 23, 2-((6-(1-(2-methoxyethyl)-3-methyl-1H-pyrazol-4-ylamino)-1H-pyrazolo[3,4-d]pyrimidin-1-yl)methyl)benzonitrile] | ≥ 10 | 0.1 to 1
4 | Cn1cc(Nc2ncc3cnn(Cc4cccc(F)c4)c3n2)cn1 [Example 67, 1-(3-Fluorobenzyl)-N-(1-methyl-1H-pyrazol-4-yl)-1H-pyrazolo[3,4-d]pyrimidin-6-amine] | 0.1 to 1 | < 0.1
5 | Cn1cc(Nc2ncc3cnn(Cc4ccc(F)cc4)c3n2)cn1 [Example 99, 1-(4-Fluorobenzyl)-N-(1-methyl-1H-pyrazol-4-yl)-1H-pyrazolo[3,4-d]pyrimidin-6-amine] | ≥ 10 | 0.1 to 1
6 | Cn1cc(Nc2ncc3cnn(Cc4cc(Cl)ccc4F)c3n2)cn1 [Example 64] | 0.1 to 1 | < 0.1
7 | COc1nn(CCO)cc1Nc1ncc2cnn(Cc3cccc(F)c3F)c2n1 [Example 50, 2-(4-(1-(2,3-Difluorobenzyl)-1H-pyrazolo[3,4-d]pyrimidin-6-ylamino)-3-methoxy-1H-pyrazol-1-yl)ethanol] | 1 to 10 | < 0.1
8 | Cn1cc(Nc2ncc3cnn(Cc4cccc(OCCN5CCCC5=O)c4)c3n2)cn1 [Example 225, 1-(2-(3-((6-((1-Methyl-1H-pyrazol-4-yl)amino)-1H-pyrazolo[3,4-d]pyrimidin-1-yl)methyl)phenoxy)ethyl)pyrrolidin-2-one] | ≥ 10 | < 0.1
9 | Cn1cc(Nc2ncc3cnn(Cc4ccccc4C#N)c3n2)cn1 [Example 1, 2-((6-(1-Methyl-1H-pyrazol-4-ylamino)-1H-pyrazolo[3,4-d]pyrimidin-1-yl)methyl)benzonitrile] | 1 to 10 | < 0.1
10 | OCCn1cc(Nc2ncc3cnn(Cc4ccccc4F)c3n2)cn1 [Example 34, 2-(4-(1-(2-Fluorobenzyl)-1H-pyrazolo[3,4-d]pyrimidin-6-ylamino)-1H-pyrazol-1-yl)ethanol] | 0.1 to 1 | < 0.1
11 | Cn1cc(Nc2ncc3cnn(Cc4ccc(F)cc4F)c3n2)cn1 [Example 47, 1-(2,4-Difluorobenzyl)-N-(1-methyl-1H-pyrazol-4-yl)-1H-pyrazolo[3,4-d]pyrimidin-6-amine] | 1 to 10 | 0.1 to 1
12 | OCCn1cc(Nc2ncc3cnn(Cc4cccc(F)c4F)c3n2)cn1 [Example 33, 2-(4-(1-(2,3-Difluorobenzyl)-1H-pyrazolo[3,4-d]pyrimidin-6-ylamino)-1H-pyrazol-1-yl)ethanol] | 0.1 to 1 | < 0.1
13 | Cn1cc(Nc2ncc3cnn(CCc4ccc(F)cc4)c3n2)cn1 [Example 82, 1-(4-Fluorophenethyl)-N-(1-methyl-1H-pyrazol-4-yl)-1H-pyrazolo[3,4-d]pyrimidin-6-amine] | 1 to 10 | 0.1 to 1
14 | Cn1cc(Nc2ncc3cnn(Cc4cccc(F)c4C#N)c3n2)cn1 [Example 108, 2-Fluoro-6-((6-((1-methyl-1H-pyrazol-4-yl)amino)-1H-pyrazolo[3,4-d]pyrimidin-1-yl)methyl)benzonitrile] | 1 to 10 | 0.1 to 1
15 | NS(=O)(=O)c1ccc(-n2ncc3cnc(Nc4cnn(CC(F)F)c4)nc32)cc1 [Example 127, 4-(6-((1-(2,2-Difluoroethyl)-1H-pyrazol-4-yl)amino)-1H-pyrazolo[3,4-d]pyrimidin-1-yl)benzenesulfonamide] | 1 to 10 | 0.1 to 1
16 | Cn1cc(Nc2ncc3cnn(-c4ccc(S(C)(=O)=O)cc4)c3n2)cn1 [Example 61, N-(1-methyl-1H-pyrazol-4-yl)-1-(4-(methylsulfonyl)phenyl)-1H-pyrazolo[3,4-d]pyrimidin-6-amine] | 1 to 10 | 0.1 to 1
17 | Cn1cc(Nc2ncc3cnn(Cc4ccccc4Oc4ccccc4)c3n2)cn1 [Example 224, N-(1-Methyl-1H-pyrazol-4-yl)-1-(2-phenoxybenzyl)-1H-pyrazolo[3,4-d]pyrimidin-6-amine] | ≥ 10 | 0.1 to 1
18 | Cn1cc(Nc2ncc3cnn(Cc4cc(F)cc(F)c4)c3n2)cn1 [Example 79, 1-(3,5-Difluorobenzyl)-N-(1-methyl-1H-pyrazol-4-yl)-1H-pyrazolo[3,4-d]pyrimidin-6-amine] | 0.1 to 1 | < 0.1
19 | Cn1cc(Nc2ncc3cnn(Cc4cccc(N5CC[C@@H](O)C5)n4)c3n2)cn1 [Example 208, (R)-1-(6-((6-((1-Methyl-1H-pyrazol-4-yl)amino)-1H-pyrazolo[3,4-d]pyrimidin-1-yl)methyl)pyridin-2-yl)pyrrolidin-3-ol] | ≥ 10 | < 0.1
20 | Cn1cc(Nc2ncc3cnn(-c4ccc(F)cc4)c3n2)cn1 [Example 56, 1-(4-Fluorophenyl)-N-(1-methyl-1H-pyrazol-4-yl)-1H-pyrazolo[3,4-d]pyrimidin-6-amine] | 1 to 10 | 0.1 to 1
